Experimental data published in patent US12357598B2, “Treatment of neurodevelopmental disorders” (THE REGENTS OF THE UNIVERSITY OF CALIFORNIA, priority 2018, dated 2025).

Legend:
Format in all cases: in vivo, mouse
ddY mice [1] = experiment: Locomotion, offspring after maternal glyphosate exposure; conditions: juvenile offspring, maternal 0.095% glyphosate vs water
Experimental: Locomotor Activity: Both horizontal and rearing activity were monitored by an infrared ray passive sensor system (SCANET-SV10, Melquest Ltd., Toyama, Japan), and activity was integrated every minute. Individual mice were placed in activity chambers and allowed 1 hour of free exploration as spontaneous activity.

ddY mice [2] = experiment: NORT, offspring after maternal glyphosate exposure; conditions: juvenile offspring, maternal 0.095% glyphosate
Experimental: Novel Object Recognition Test (NORT): Mice were habituated for 10 minutes in the test box for 3 straight days. At 4th day, two objects (differing in shape and color but of similar size) were placed in the box 35.5 cm apart (symmetrically), and each animal was allowed to explore in the box for 5 minutes. The animals were considered to be exploring the object when the head of the animal was both facing and within 2.54 cm of the object or when any part of the body, except for the tail was touching the object. The time that mice spent exploring each object was recorded. After training, mice were immediately returned to their home cages, and the box and objects were cleaned with 75% ethanol, to avoid any possible instinctive odorant cues. Retention tests were carried out at one-day intervals, following the respective training. During the retention test, each mouse was reintroduced into their original test box, and one of the training objects was replaced by a novel object. The mice were then allowed to explore freely for 5 minutes, and the time spent exploring each object was recorded. Throughout the experiments, the objects were counter-balanced, in terms of their physical complexity and emotional neutrality. […]

ddY mice [3] = experiment: Prepulse inhibition (PPI) test, offspring after maternal glyphosate exposure; conditions: juvenile offspring, maternal 0.095% glyphosate vs water
Experimental: PPI: The offspring mice were tested for their acoustic startle reactivity (ASR) in a startle chamber (SR-LAB; San Diego Instruments, San Diego, CA, USA) using the standard methods described previously (9,10). The test sessions were begun after an initial 10-min acclimation period in the chamber. The mice were subjected to one of six trials: (1) pulse alone, as a 40 ms broadband burst; a pulse (40 ms broadband burst) preceded by 100 ms with a 20 ms prepulse that was (2) 4 dB, (3) 8 dB, (4) 12 dB, or (5) 16 dB over background (65 dB); and (6) background only (no stimulus). The amount of prepulse inhibition (PPI) was expressed as the percentage decrease in the amplitude of the startle reactivity caused by presentation of the prepulse (% PPI). The PPI test lasted 20 min in total.

ddY mice [4] = experiment: Three-chamber social interaction test, offspring after maternal glyphosate exposure; conditions: juvenile offspring, maternal 0.095% glyphosate vs water treated group
Experimental: Treatment of TPPU. TPPU was dissolved in polyethylene glycol 400 (PEG 400: Tokyo Chemical Industry Co., Ltd, Tokyo, Japan). TPPU (3 mg/kg/day) or vehicle (5 ml/kg, PEG 400) was administered orally in the pregnant mice from E5 to P21. Behavioral tests of offspring were performed during juvenile stage (P28-P35) after maternal glyphosate exposure (FIG. 1A).
Three-chamber Social Interaction Test: The three-chamber social interaction test was performed to investigate sociability and preference for social novelty in mice, as reported previously (7). The apparatus consisted of a rectangular, three-chambered box and a lid with a video camera (BrainScience Idea, Co., Ltd, Osaka, Japan). Each chamber (20 cm×40 cm×20 cm) was divided by a clear plastic wall with a small square opening (5 cm×8 cm). First, each subject mouse was placed in the box and allowed to explore for 10 min to habituate the environment. During the session, an empty wire cage (10 cm in diameter, 17.5 cm in height, with vertical bars 0.3 cm apart) was located in the center of left and right chamber. Next, an unfamiliar ddY male mouse (stranger 1) that had no prior contact with the subject mouse was put into a wire cage that was placed into one of the side chambers. […] The time spent in each chamber and the time spent around each cage was recorded on video.

ddY mice [5] = experiment: Measurement of NMDAR-related amino acids in plasma and brain after maternal glyphosate exposure; conditions: juvenile offspring (P28)
Experimental: Measurement of amino acids. On P28, mice were deeply anesthetized with isoflurane and plasma was collected. Subsequently, prefrontal cortex (PFC), hippocampus and striatum were quickly dissected on ice from whole brain. The dissected tissues were weighed and stored at −80° C. until assayed. Levels of amino acids (glutamate, glutamine, glycine, L-serine, D-serine, GABA) were measured using high performance liquid chromatography system (Shimadzu Corporation, Kyoto, Japan), as reported previously (12,18,19).

Ephx2 mRNA = experiment: Quantitative RT-PCR of Ephx2 mRNA in brain regions of juvenile offspring after MIA; conditions: juvenile offspring of poly(I:C)-treated mice vs saline-treated mice
Description: Gene expression analysis by quantitative real-time PCR. At juvenile (P28) stage, mice were sacrificed, and their brains were removed for measurement of gene expression of Ephx2 mRNA. Brain regions such as PFC, striatum, CA1, CA3 and DG of the hippocampus were dissected from brain on ice using a Leica microscope S9E (Leica Microsystems, Tokyo, Japan). A quantitative RT-PCR system (Step One Plus, Thermo Fisher Scientific, Yokohama, Japan) was used to measure mRNAs. The specific mRNA transcripts were quantified by TaqManGene Expression assays (Thermo Fisher Scientific, Yokohama, Japan). Expression levels of Ephx2 (Mm01313813_m1) was measured in brain tissue. Total RNA was extracted by use of an RNeasy Mini Kit (Qiagen, Hilden, Germany). The purity of total RNA was assessed by Biophotometer plus (Eppendorf, Hamburg, Germany). The RNA samples were used in the first strand cDNA synthesis with High Capacity cDNA Reverse Transcription Kit (#4368813 Thermo Fisher Scientific, Yokohama, Japan). All samples were tested in triplicate and average values were used for quantification. The average values were normalized to Vic-labeled Actb mRNA (Cat #4352341E: pre-developed TaqMan Assay Reagents, Thermo Fisher Scientific, Yokohama, Japan).

O=C(O)CNCP(=O)(O)O [glyphosate]
locomotion (ddY mice [1]): not different | novel object recognition test (NORT) (ddY mice [2]): cognitive deficits | prepulse inhibition (PPI) (ddY mice [3]): not different | three-chamber social interaction test (ddY mice [4]): social interaction deficits | D-Serine level (ddY mice [5]; PFC): 0.313 ± 0.010 nmol/mg tissue | GABA level (ddY mice [5]; PFC): 2.060 ± 0.058 nmol/mg tissue | Glutamate level (ddY mice [5]; PFC): 10.392 ± 0.377 nmol/mg tissue | Glutamine level (ddY mice [5]; PFC): 5.053 ± 0.243 nmol/mg tissue | Glycine level (ddY mice [5]; PFC): 0.705 ± 0.023 nmol/mg tissue | L-Serine level (ddY mice [5]; PFC): 0.622 ± 0.016 nmol/mg tissue | D-Serine level (ddY mice [5]; hippocampus): 0.259 ± 0.017 nmol/mg tissue | GABA level (ddY mice [5]; hippocampus): 2.469 ± 0.097 nmol/mg tissue | Glutamate level (ddY mice [5]; hippocampus): 9.350 ± 0.282 nmol/mg tissue | Glutamine level (ddY mice [5]; hippocampus): 4.765 ± 0.137 nmol/mg tissue | Glycine level (ddY mice [5]; hippocampus): 0.725 ± 0.030 nmol/mg tissue | L-Serine level (ddY mice [5]; hippocampus): 0.662 ± 0.037 nmol/mg tissue | D-Serine level (ddY mice [5]; plasma): 7.522 ± 0.578 nmol/mL | Glutamate level (ddY mice [5]; plasma): 38.003 ± 1.974 nmol/mL | Glutamine level (ddY mice [5]; plasma): 496.268 ± 15.748 nmol/mL | Glycine level (ddY mice [5]; plasma): 354.185 ± 9.806 nmol/mL | L-Serine level (ddY mice [5]; plasma): 144.824 ± 4.622 nmol/mL | D-Serine level (ddY mice [5]; striatum): 0.281 ± 0.010 nmol/mg tissue | GABA level (ddY mice [5]; striatum): 3.076 ± 0.151 nmol/mg tissue | Glutamate level (ddY mice [5]; striatum): 7.745 ± 0.141 nmol/mg tissue | Glutamine level (ddY mice [5]; striatum): 5.735 ± 0.319 nmol/mg tissue | Glycine level (ddY mice [5]; striatum): 0.755 ± 0.039 nmol/mg tissue | L-Serine level (ddY mice [5]; striatum): 0.715 ± 0.032 nmol/mg tissue

polyriboinosinic-polyribocytidilic acid [Poly(I:C)]
expression of sEH (or Ephx2) mRNA in the PFC (Ephx2 mRNA): significantly higher
